In general, pIC50 refers to −log10 of the IC50, conventionally taken in molar units.

The text below walks through data of patent US20260258048A1, “LACTAM-CONTAINING IMIDAZOPYRIDAZINE IL-17 INHIBITOR COMPOUNDS” (Janssen Pharmaceutica NV, priority 2023, published 2026).

Structures are written as SMILES. pIC50: −log10 of the molar value.

The target of assay [1] is IL-17A(FLAG-tagged): IL-17RA(His-tagged) (Homo sapiens, UniProt Q16552, K93Q). The assay can be described thus: IL-17A(FLAG-tagged): IL-17RA(His-tagged) binding disruption Eu-HTRF assay. The conditions noted are these: for potency increase in the HTRF IC50 when compared to its C-3 epimer: (S)-configuration on C-3 (cis) vs (R)-epimer (trans): Example 51 vs 52, Example 59 vs 60. Summed up:
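Compound (22-point, 2-fold series) was pre-incubated 1 h at rt with FLAG-IL-17A, added as a 2× solution (1 μM). A 2× mix of C-terminal 10×His IL-17RA, Eu-anti-FLAG donor and D2-anti-His acceptor in PBS/0.01% Triton X-100/200 mM KF was then added for 2 h at rt. The 665/615 nm ratio was fitted to one-site competition for IC50.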
For orientation: Time-resolved FRET reads energy transfer from a long-lived donor to a nearby acceptor.

The test system of assay [2] is IL-17A-induced G-CSF production in human normal keratinocyte (NHK). The assay can be described thus: NHK assay: IL-17A-induced G-CSF production in normal human keratinocytes. Format: cell-based. To be noted: IL-17A 5 ng/mL, 24 h. The essentials: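 Adult keratinocytes at 3000-4000 cells/well; recombinant human IL-17A pre-incubated 1 h at rt with titrated compound, then added to cells (final 5 ng/mL IL-17A, 0.2% DMSO, 5% FBS) for 24 h at 37 °C. Supernatant G-CSF quantified by HTRF against a standard curve to give IC50; viability checked by CellTiter-Glo versus DMSO.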

[3] abbreviates: class of the average IC50 where tested more than once.
[4] abbreviates: Homo sapiens, Keratinocyte, class of the average IC50 where tested more than once.
Setting [5] is: Homo sapiens, Keratinocyte, value in brackets, Table 4.

Sequence of UniProt Q16552 (Q16552 with tags, fused parts or gaps K93Q): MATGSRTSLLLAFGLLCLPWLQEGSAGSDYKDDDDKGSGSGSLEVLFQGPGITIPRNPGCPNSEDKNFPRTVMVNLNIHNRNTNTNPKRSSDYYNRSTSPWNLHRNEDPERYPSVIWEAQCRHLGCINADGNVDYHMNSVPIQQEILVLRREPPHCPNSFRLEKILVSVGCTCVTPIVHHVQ

As for `CC1(Cc2cnn3cc([C@@H](NC(=O)c4nonc4C4CC4)C4CCC(F)(F)CC4)nc3c2)CCCNC1=O` (single isomer, unassigned) [Example 28, 4-Cyclopropyl-N—((S)-(4,4-difluorocyclohexyl)(7-(((S*)-3-methyl-2-oxopiperidin-3-yl)methyl)imidazo[1,2-b]pyridazin-2-yl)methyl)-1,2,5-oxadiazole-3-carboxamide], the pIC50 in assay [1] (setting [3]) is > 6.40; in assay [2] (setting [3]) it was 5.40 to 6.40.

In the case of `O=C(N[C@H](c1cn2ncc([C@H]3C[C@]34C[C@@H](C(F)(F)F)NC4=O)cc2n1)C1CCC(F)(F)CC1)c1nonc1C1CC1` (single isomer, unassigned) [Example 40], the pIC50 in assay [1] (setting [3]) and in assay [2] (setting [4]) was < 5.40 in each case.

Take `O=C(N[C@H](c1cn2ncc(CC3C[C@@H](C4CC4)NC3=O)cc2n1)C1CCC(F)(F)CC1)c1nonc1C1CC1` (single isomer, unassigned) [Example 42, 4-Cyclopropyl-N—((S)-(7-(((3S*,5S)-5-cyclopropyl-2-oxopyrrolidin-3-yl)methyl)imidazo[1,2-b]pyridazin-2-yl)(4,4-difluorocyclohexyl)methyl)-1,2,5-oxadiazole-3-carboxamide]: the pIC50 in assay [1] (setting [3]) and in assay [2] (setting [3]) was > 6.40 each time.

`O=C(N[C@H](c1cn2ncc(CC3C[C@@H](C4CC4)NC3=O)cc2n1)C1CCC(F)(F)CC1)c1nonc1C1CC1` (single isomer, unassigned) [Example 43, 4-Cyclopropyl-N—((S)-(7-(((3R*,5S)-5-cyclopropyl-2-oxopyrrolidin-3-yl)methyl)imidazo[1,2-b]pyridazin-2-yl)(4,4-difluorocyclohexyl)methyl)-1,2,5-oxadiazole-3-carboxamide]: the negative logarithm of the IC50 (pIC50) in assay [1] (setting [3]) was 5.40 to 6.40; in assay [2] (setting [3]), < 5.40.

With `O=C(N[C@H](c1cn2ncc(CC3C(=O)NCC3C(F)(F)F)cc2n1)C1CCC(F)(F)CC1)c1nonc1C1CC1` (single isomer, unassigned) [Example 50], the values for the pIC50 in assay [1] (setting [3]) and in assay [2] (setting [4]) were 5.40 to 6.40 and < 5.40, respectively.

In the case of `CC1(Cc2cnn3cc([C@@H](NC(=O)c4nonc4C4CC4)C4CCC(F)(F)CC4)nc3c2)CCNC1=O` (single isomer, unassigned) [Example 53, 4-Cyclopropyl-N—((S)-(4,4-difluorocyclohexyl)(7-(((R*)-3-methyl-2-oxopyrrolidin-3-yl)methyl)imidazo[1,2-b]pyridazin-2-yl)methyl)-1,2,5-oxadiazole-3-carboxamide], the pIC50 in assay [1] (setting [3]) and in assay [2] (setting [3]) was 5.40 to 6.40 in each case.

Take `CC1(Cc2cnn3cc([C@@H](NC(=O)c4nonc4C4CC4)C4CCC(F)(F)CC4)nc3c2)CCNC1=O` (single isomer, unassigned) [Example 54, 4-Cyclopropyl-N—((S)-(4,4-difluorocyclohexyl)(7-(((S*)-3-methyl-2-oxopyrrolidin-3-yl)methyl)imidazo[1,2-b]pyridazin-2-yl)methyl)-1,2,5-oxadiazole-3-carboxamide]: the pIC50 was 5.40 to 6.40 in assay [1] (setting [3]) and < 5.40 in assay [2] (setting [3]).

For the compound `C[C@@]1(C(F)(F)F)CC(Cc2cnn3cc([C@@H](NC(=O)c4nonc4C4CC4)C4CCC(F)(F)CC4)nc3c2)C(=O)N1` (single isomer, unassigned) [Example 56, 4-Cyclopropyl-N—((S)-(4,4-difluorocyclohexyl)(7-(((3R*,5S)-5-methyl-2-oxo-5-(trifluoromethyl)pyrrolidin-3-yl)methyl)imidazo[1,2-b]pyridazin-2-yl)methyl)-1,2,5-oxadiazole-3-carboxamide], the negative-log IC50 (pIC50) in assay [1] (setting [3]) and in assay [2] (setting [3]) was 5.40 to 6.40 throughout.

As for `CC(C)(CC[C@H](NC(=O)c1nonc1C1CC1)c1cn2ncc(CC3C[C@@](C)(C(F)(F)F)NC3=O)cc2n1)C(F)(F)F` (single isomer, unassigned) [Example 58, 4-Cyclopropyl-N—((S)-5,5,5-trifluoro-4,4-dimethyl-1-(7-(((3R*,5S)-5-methyl-2-oxo-5-(trifluoromethyl)pyrrolidin-3-yl)methyl)imidazo[1,2-b]pyridazin-2-yl)pentyl)-1,2,5-oxadiazole-3-carboxamide], the pIC50 in assay [1] (setting [3]) is > 6.40; in assay [2] (setting [3]), 5.40 to 6.40.

For `O=C(N[C@H](c1cn2ncc([C@@H](O)[C@@H]3C[C@H](C(F)(F)F)NC3=O)cc2n1)C1CCC(F)(F)CC1)c1nonc1C1CC1` (single isomer, unassigned) [Example 76], the pIC50 in assay [1] (setting [3]) is < 5.40; in assay [2] (setting [4]), 5.40 to 6.40.

For `C[C@@H](c1cnn2cc([C@@H](NC(=O)c3nonc3C3CC3)C3CCC(F)(F)CC3)nc2c1)[C@@H]1C[C@@H](C(F)(F)F)NC1=O` (single isomer, unassigned) [Example 80, 4-Cyclopropyl-N—((S)-(4,4-difluorocyclohexyl(7-((R*)-1-((3S*,5S)-2-oxo-5-(trifluoromethyl)pyrrolidin-3-yl)ethyl)imidazo[1,2-b]pyridazin-2-yl)methyl)-1,2,5-oxadiazole-3-carboxamide], the negative logarithm of the IC50 (pIC50) in assay [1] (setting [3]) and in assay [2] (setting [4]) was 5.40 to 6.40 each time.

`C[C@]1(Cc2cnn3cc([C@@H](NC(=O)c4nonc4C4CC4)C4CCC(F)(F)CC4)nc3c2)C[C@@H](C(F)(F)F)NC1=O` (single isomer, unassigned) [Example 97]: the pIC50 in assay [1] (setting [3]) and in assay [2] (setting [4]) was > 6.40 throughout.

As for `Cc1nonc1C(=O)N[C@H](c1cn2ncc(CC3(CC#N)C[C@@H](C(F)(F)F)NC3=O)cc2n1)C1CCC(F)(F)CC1` (single isomer, unassigned) [Example 103, N—((S)-(7-(((3S*,5S)-3-(Cyanomethyl)-2-oxo-5-(trifluoromethyl)pyrrolidin-3-yl)methyl)imidazo[1,2-b]pyridazin-2-yl)(4,4-difluorocyclohexyl)methyl)-4-methyl-1,2,5-oxadiazole-3-carboxamide], the pIC50 in assay [1] (setting [3]) and in assay [2] (setting [4]) was > 6.40 throughout.

As for `N#CCC1(Cc2cnn3cc([C@@H](NC(=O)c4nonc4C4CC4)C4CCC(F)(F)CC4)nc3c2)C[C@@H](C(F)(F)F)NC1=O` (single isomer, unassigned) [Example 104, N—((S)-(7-(((3S*,5S)-3-(Cyanomethyl)-2-oxo-5-(trifluoromethyl)pyrrolidin-3-yl)methyl)imidazo[1,2-b]pyridazin-2-yl)(4,4-difluorocyclohexyl)methyl)-4-cyclopropyl-1,2,5-oxadiazole-3-carboxamide], the pIC50 in assay [1] (setting [3]) and in assay [2] (setting [4]) was > 6.40 throughout.

For the compound `Cc1nonc1C(=O)N[C@H](c1cn2ncc(CC3(CN(C)C)C[C@@H](C(F)(F)F)NC3=O)cc2n1)C1CCC(F)(F)CC1` (single isomer, unassigned) [Example 105, N—((S)-(4,4-Difluorocyclohexyl)(7-(((3S*,5S)-3-((dimethylamino)methyl)-2-oxo-5-(trifluoromethyl)pyrrolidin-3-yl)methyl)imidazo[1,2-b]pyridazin-2-yl)methyl)-4-methyl-1,2,5-oxadiazole-3-carboxamide], the pIC50 in assay [1] (setting [3]) and in assay [2] (setting [4]) was > 6.40 throughout.

Consider `O=C(N[C@H](c1cn2ncc(C[C@@]3(O)C[C@@H](C(F)(F)F)NC3=O)cc2n1)C1CCC(F)(F)CC1)c1nonc1C1CC1` [Example 36], for which the negative logarithm of the IC50 (pIC50) in assay [1] (setting [3]) and in assay [2] (setting [4]) was > 6.40 each time.

Take `CC(C)n1nccc1C(=O)N[C@H](c1cn2ncc(C[C@H]3C[C@@H](C(F)(F)F)NC3=O)cc2n1)C1CCC(F)(F)CC1` [Example 51, N—((S)-(4,4-Difluorocyclohexyl)(7-(((3S,5S)-2-oxo-5-(trifluoromethyl)pyrrolidin-3-yl)methyl)imidazo[1,2-b]pyridazin-2-yl)methyl)-1-isopropyl-1H-pyrazole-5-carboxamide]: the “potency increase in the HTRF IC50 when compared to its C-3 epimer” value in assay [1] is “more than 100 fold”. The pIC50 is > 6.40 in assay [1] (setting [3]); 6.82 in assay [1] (value in brackets, Table 4); > 6.40 in assay [2] (setting [4]); 7.30 in assay [2] (setting [5]).

As to `CC(C)n1nccc1C(=O)N[C@H](c1cn2ncc(C[C@@H]3C[C@@H](C(F)(F)F)NC3=O)cc2n1)C1CCC(F)(F)CC1` [Example 52, N—((S)-(4,4-Difluorocyclohexyl)(7-(((3R,5S)-2-oxo-5-(trifluoromethyl)pyrrolidin-3-yl)methyl)imidazo[1,2-b]pyridazin-2-yl)methyl)-1-isopropyl-1H-pyrazole-5-carboxamide], the pIC50 in assay [1] (setting [3]) was 5.40 to 6.40; in assay [1] (value in brackets, Table 4), 5.61; in assay [2] (setting [4]), 5.40 to 6.40; in assay [2] (setting [5]), 5.55.

Take `O=C(N[C@H](c1cn2ncc(C[C@H]3C[C@@H](C(F)(F)F)NC3=O)cc2n1)C1CCC(F)(F)CC1)c1nonc1C1CC1` [Example 59, 4-Cyclopropyl-N—[(S)-(4,4-difluorocyclohexyl)-[7-[[(3S,5S)-2-oxo-5-(trifluoromethyl)pyrrolidin-3-yl]methyl]imidazo[1,2-b]pyridazin-2-yl]methyl]-1,2,5-oxadiazole-3-carboxamide]: the “potency increase in the HTRF IC50 when compared to its C-3 epimer” value in assay [1] is reported as “more than 80 fold”. In addition, the pIC50 is > 6.40 in assay [1] (setting [3]); 7.85 in assay [1] (value in brackets, Table 4); > 6.40 in assay [2] (setting [4]); 8.11 in assay [2] (setting [5]).
